The test system of one experiment is E. Faecium. In words: MIC growth inhibition assay in MHB2. It counts as cell-based, Enterococcus faecium. The procedure:
(§1) Bacteria. Bacterial clinical isolates, used for initial screening and in previous studies [Greber K E et al., 2017], were anonymously provided by the clinical microbiology laboratory of the University of Pittsburgh medical Center. The panel used for secondary screening was from CDC (Table 4), with resistance profiles data. Bacteria are stored in lock-secured −80° C. freezer and typically retrieved by obtaining single colonies on agar plates prior for subsequent liquid broth cultures. Suspensions of test bacteria were prepared from log phase of growth by diluting overnight cultures at 1:100 with fresh cation-adjusted MHB (MHB2, Millipore Sigma, USA) and incubating for additional 3-4 hours. Bacteria were spun at 3000×g for 10 minutes and the pellet resuspended in test condition media (Millipore Sigma, USA) to determine bacterial turbidity using a Den-1B densitometer (Grant Instruments, USA) at 0.5 McFarland (unit of bacterial density) corresponding to […].
(§2) Antibacterial assays. To examine antibacterial activity, this study used minor modifications of a standard growth inhibition assay endorsed by the Clinical and Laboratory Standards Institute (CLSI), as previously described [Greber K E et al., 2017]. Bacteria were incubated with each of the indicated peptides in MHB2. The bacterial cells were kept in an incubator for 18 hours at 37° C., which is linked to a robotic system that feeds a plate reader every hour with one of 8×96-well plates. This set-up allows the collection of growth kinetic data at A 570 (absorbance at 570 nm) to examine growth inhibition in real time (BioTek Instruments, USA). […] To assess bactericidal properties of the peptide, the assay was modified by using 15% fetal bovine serum (FBS, for a more physiologically relevant test condition) mixed with 25% MHB2 and 60% PBS. Bacterial cells (colony forming unit/mL or CFU/mL) were enumerated after incubating treated bacteria for 3 hours and plating serially diluted samples on broth agar medium at 37° C. overnight. […] For killing kinetics, we slightly modified the bactericidal assay to examine bacterial killing at the MBC (or 2×MBC) as a function of time for up to 3 hours. Data were analyzed using GraphPad Prism software.

Experiment [1] deals with MDR panel of gram-negative (GNB) and -positive (GPB) bacterial isolates classified as ESKAPE pathogens. As to the method:
as §1
Antibacterial assays. To examine antibacterial activity, this study used minor modifications of a standard growth inhibition assay endorsed by the Clinical and Laboratory Standards Institute (CLSI), as previously described [Greber K E et al., 2017]. Bacteria were incubated with each of the indicated peptides in MHB2. The bacterial cells were kept in an incubator for 18 hours at 37° C., which is linked to a robotic system that feeds a plate reader every hour with one of 8×96-well plates. This set-up allows the collection of growth kinetic data at A 570 (absorbance at 570 nm) to examine growth inhibition in real time (BioTek Instruments, USA). […] To assess bactericidal properties of the peptide, the assay was modified by using 15% fetal bovine serum (FBS, for a more physiologically relevant test condition) mixed with 25% MHB2 and 60% PBS. Bacterial cells (colony forming unit/mL or CFU/mL) were enumerated after incubating treated bacteria for 3 hours and plating serially diluted samples on broth agar medium at 37° C. overnight. […] Data were analyzed using GraphPad Prism software.

The next experiment relates to Enterobacter spp. The experiment is described as follows: MIC growth inhibition assay in MHB2. In kind it is cell-based, Enterobacter spp: EA (aerogenes), EC (cloacae). The procedure:
as §1, §2

In the next experiment the test system is P. aeruginosa. In words: microbe, parasite or virus in culture. As to the method:
as §1, §2

The next experiment concerns E. coli. In words: microbe, parasite or virus in culture. The procedure: as §1, §2
In a further experiment the test system is A. baumannii. In words: microbe, parasite or virus in culture. The procedure: as §1, §2
In another experiment the test system is K. pneumoniae. The experiment is described as follows: MIC growth inhibition assay in MHB2. It counts as cell-based, klebsiella pneumoniae. The procedure:
as §1, §2

A further experiment has as its system S. aureus. The experiment is described as follows: MIC growth inhibition assay in MHB2. In kind it is cell-based, Staphylococcus aureus. The procedure: as §1, §2
Experiment [2] deals with MDR clinical strains of ESKAPE pathogens and E. coli provided by the CDC (AR isolates panel). In words: Advanced testing, MIC against CDC AR isolates panel. As to conditions: colistin-resistant strains. In kind it is cell-based. As to the method:
as §1, §2

We go through six compounds from patent US20240197823A1, “CATIONIC ANTIMICROBIAL PEPTIDES AND USES THEREOF” (priority 2021, published 2024).

≈ marks a conversion by molar mass, not a printed value. Like-named read-outs stand apart in the source and are kept apart here. Positions of bridges follow the written chain, without caps; N, C: chain ends. Non-standard residues stand in square brackets, D forms with d. Residues, ends and D or L forms follow the SMILES beside them. No end group written: not given here. *: point of attachment. Heptanoyl(5-Me) = CCC(C)CCCC(=O)*; Dab = NCC[C@H](N)C(=O)O

In the case of `CCC(C)CCCC(=O)N[C@@H](CCN)C(=O)N[C@H](C(=O)N[C@@H](CCN)C(=O)N[C@H]1CCNC(=O)[C@H]([C@@H](C)O)NC(=O)[C@H](CCN)NC(=O)[C@H](CCN)NC(=O)[C@H](CC(C)C)NC(=O)[C@@H](CC(C)C)NC(=O)[C@H](CCN)NC1=O)[C@@H](C)O` (stereo partly drawn) [Colistin, colistin, reference compound] ({Heptanoyl(5-Me)}-[Dab]T[Dab][Dab][Dab][dL]L[Dab][Dab]T; lactam 4-C), the MIC against E. Faecium (Enterococcus faecium, strain EF673, CDC, MHB2) was > 16 µM; in the experiment on E. Faecium (strain EF500, CDC, MHB2), >16 µM; in the experiment with E. Faecium (strain EF671, CDC, MHB2), >16 µM; against E. Faecium (strain EF672, CDC, MHB2), >16 µM; with Enterobacter spp (Enterobacter, strain EA62 (aerogenes), CDC, MHB2), 2 µM (≈ 2.31 µg/mL); with Enterobacter spp (Enterobacter, strain EA547 (aerogenes), CDC, MHB2), 0.25 µM (≈ 0.289 µg/mL). The MIC was 4 µM (≈ 4.62 µg/mL) against Enterobacter spp (Enterobacter, strain EC544 (cloacae), CDC, MHB2); 2 µM (≈ 2.31 µg/mL) against Enterobacter spp (Enterobacter, strain EC545 (cloacae), CDC, MHB2); 1 µM (≈ 1.16 µg/mL) in the experiment with P. aeruginosa (Pseudomonas aeruginosa, strain PA216, CDC, MHB2); > 16 µM against P. aeruginosa (Pseudomonas aeruginosa, strain PA229, CDC, MHB2); 1 µM (≈ 1.16 µg/mL) against P. aeruginosa (Pseudomonas aeruginosa, strain PA230, CDC, MHB2); 1 µM (≈ 1.16 µg/mL) with P. aeruginosa (Pseudomonas aeruginosa, strain PA231, CDC, MHB2). Also, the MIC against E. coli (Escherichia coli, strain Eco541, CDC, MHB2) worked out at 1 µM (≈ 1.16 µg/mL); against E. coli (Escherichia coli, strain Eco543, CDC, MHB2), 8 µM (≈ 9.24 µg/mL); against E. coli (Escherichia coli, strain Eco546, CDC, MHB2), 0.25 µM (≈ 0.289 µg/mL); in the experiment on E. coli (Escherichia coli, strain Eco549, CDC, MHB2), 1 µM (≈ 1.16 µg/mL); in the experiment on A. baumannii (Acinetobacter baumannii, CDC AR isolate AB288 (colistin resistance not confirmed)), 1 µM (≈ 1.16 µg/mL); in the experiment with A. baumannii (Acinetobacter baumannii, CDC AR isolate AB300 (colistin resistance not confirmed)) it was 1 µM (≈ 1.16 µg/mL). Also, the MIC in the experiment on A. baumannii (Acinetobacter baumannii, CDC AR isolate AB301 (colistin resistance not confirmed)) is 1 µM (≈ 1.16 µg/mL); in the experiment with A. baumannii (Acinetobacter baumannii, CDC AR isolate AB303 (colistin resistance not confirmed)), 0.5 µM (≈ 0.578 µg/mL); against A. baumannii (Acinetobacter baumannii, strain AB273, CDC, MHB2), 0.5 µM (≈ 0.578 µg/mL); with A. baumannii (Acinetobacter baumannii, strain AB274, CDC, MHB2), 0.25 µM (≈ 0.289 µg/mL); in the experiment on A. baumannii (Acinetobacter baumannii, strain AB275 (first line r9), CDC, MHB2), 0.25 µM (≈ 0.289 µg/mL); against A. baumannii (Acinetobacter baumannii, strain AB275 (second line r10), CDC, MHB2) it was 0.5 µM (≈ 0.578 µg/mL). In addition, the MIC was 4 µM (≈ 4.62 µg/mL) in the experiment on K. pneumoniae (Klebsiella pneumoniae, colistin-resistant CDC AR isolate KP46, read-out: MIC); > 16 µM in the experiment with K. pneumoniae (Klebsiella pneumoniae, colistin-resistant CDC AR isolate KP87, read-out: MIC); 8 µM (≈ 9.24 µg/mL) in the experiment on K. pneumoniae (Klebsiella pneumoniae, colistin-resistant CDC AR isolate KP125, read-out: MIC); 16 µM (≈ 18.5 µg/mL) with K. pneumoniae (Klebsiella pneumoniae, colistin-resistant CDC AR isolate KP507, read-out: MIC); 16 µM (≈ 18.5 µg/mL) with K. pneumoniae (Klebsiella pneumoniae, colistin-resistant CDC AR isolate KP1010, read-out: MIC); > 16 µM in the experiment with K. pneumoniae (Klebsiella pneumoniae, colistin-resistant CDC AR isolate KP1041, read-out: MIC). The MIC in the experiment with K. pneumoniae (Klebsiella pneumoniae, colistin-resistant CDC AR isolate KP1045, read-out: MIC) is > 16 µM; in the experiment with K. pneumoniae (Klebsiella pneumoniae, strain KP542, CDC, MHB2, read-out: MIC), > 16 µM; in the experiment on K. pneumoniae (Klebsiella pneumoniae, strain KP548, CDC, MHB2, read-out: MIC), 0.25 µM (≈ 0.289 µg/mL); in the experiment on K. pneumoniae (Klebsiella pneumoniae, strain KP550, CDC, MHB2, read-out: MIC), 0.25 µM (≈ 0.289 µg/mL); in the experiment on K. pneumoniae (Klebsiella pneumoniae, strain KP552, CDC, MHB2, read-out: MIC), 0.25 µM (≈ 0.289 µg/mL); against K. pneumoniae (strain KPA5, initial MDR panel (Table 5)), “colistin-resistant phenotype”. The MIC is > 16 µM against S. aureus (Staphylococcus aureus, strain SA461, CDC, MHB2); >16 µM in the experiment on S. aureus (strain SA462, CDC, MHB2); >16 µM with S. aureus (strain SA463, CDC, MHB2); >16 µM against S. aureus (strain SA561, CDC, MHB2). The “mean MIC” value in experiment [1] (GNB and GPB of the initial MDR panel, MHB2) is “lowest mean MIC”. Also, in [1] (GPB strains of the initial MDR panel (Table 5)), the “activity against the GPB strains” value was “inactive”.

With `Cc1onc(-c2ccccc2)c1C(=O)N[C@@H]1C(=O)N2[C@@H]1SC(C)(C)[C@@H]2C(=O)O` [Oxa], the MIC is recorded as 0.25 µM (≈ 0.1 µg/mL) with E. Faecium (strain EF23614); >16 µM with E. Faecium (strain EF24670); 2 µM (≈ 0.803 µg/mL) in the experiment with E. Faecium (strain EF26215); 2 µM (≈ 0.803 µg/mL) with E. Faecium (strain EF26692); 8 µM (≈ 3.21 µg/mL) against S. aureus (strain SA12212); 4 µM (≈ 1.61 µg/mL) in the experiment with S. aureus (strain SA18710). The MIC in the experiment on S. aureus (strain SA49775) was determined as 0.25 µM (≈ 0.1 µg/mL); in the experiment on S. aureus (strain SA-US300) it was 4 µM (≈ 1.61 µg/mL).

For the compound `Cc1nnc(SCC2=C(C(=O)O)N3C(=O)[C@@H](NC(=O)Cn4cnnn4)[C@H]3SC2)s1` [Cefa], the MIC against E. Faecium (strain EF23614) is on record as >16 µM; in the experiment with E. Faecium (strain EF24670) it was >16 µM; in the experiment with E. Faecium (strain EF26215), 4 µM (≈ 1.82 µg/mL); against E. Faecium (strain EF26692), 4 µM (≈ 1.82 µg/mL); against S. aureus (strain SA12212), 16 µM (≈ 7.27 µg/mL); against S. aureus (strain SA18710), 16 µM (≈ 7.27 µg/mL). For the same compound, the MIC with S. aureus (strain SA49775) is on record as 2 µM (≈ 0.909 µg/mL); with S. aureus (strain SA-US300), 8 µM (≈ 3.64 µg/mL).

For the compound RWVRRVRRWVRRVRRWVRRV [E68], in experiment [2], the cross-resistance with colistin entry is listed as “no cross-resistance at all”.

In the experiment on P. aeruginosa, RRVWRRVRRVWRRVRRVWRRVV [E75] gave an MIC of 13 µM.

For the compound `NC[C@H]1O[C@H](O[C@H]2[C@H](O)[C@@H](O[C@H]3O[C@H](CO)[C@@H](O)[C@H](N)[C@H]3O)[C@H](N)C[C@@H]2N)[C@H](N)C[C@@H]1O` [Tob], the MIC against Enterobacter spp (strain EA518 (aerogenes)) is >16 µM; in the experiment with Enterobacter spp (strain EA596 (aerogenes)), >16 µM; against Enterobacter spp (strain EC470 (cloacae)) it was 4 µM (≈ 1.87 µg/mL); with Enterobacter spp (strain EC560 (cloacae)), >16 µM; with P. aeruginosa (strain PA01) it was 1 µM (≈ 0.468 µg/mL); with P. aeruginosa (strain PA14), 0.5 µM (≈ 0.234 µg/mL). The MIC against P. aeruginosa (strain PA97-5) was >16 µM; against P. aeruginosa (strain PA129-5), 16 µM (≈ 7.48 µg/mL); against E. coli (strain YDC337), >16 µM; against E. coli (strain YDC748), 16 µM (≈ 7.48 µg/mL); in the experiment with A. baumannii (strain AB-A2), 0.5 µM (≈ 0.234 µg/mL); in the experiment on A. baumannii (strain AB-A3) it was 16 µM (≈ 7.48 µg/mL). For the same compound, the MIC against A. baumannii (strain AB-F8) was >16 µM; against A. baumannii (strain AB-F9) it was 2 µM (≈ 0.935 µg/mL); with K. pneumoniae (strain KPA5, read-out: MIC) it was >16 µM; in the experiment with K. pneumoniae (strain KPB3, read-out: MIC), >16 µM.
